Counter-ions that a name gives are not always drawn.

For one assay, the system named is Acinetobacter baumannii ATCC17961. Description: Antimicrobial susceptibility testing: 90% growth inhibitory concentration (IC90) determination in Iso-Sensitest broth, OD600 growth. The format is cell-based. The following applies: Acinetobacter baumannii, ATCC17961, 16 h, read-out: A. baumannii ATCC 17961 IC90 (uM), strain ATCC 17961, OD600 growth over 16 h. Summed up: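 Serial twofold dilution, 10 points, e.g. 50–0.097 μM final; ~5×10^(5) CFU/ml; 35±2° C, 16 h; kinetic OD600 every 20 min; IC90 from log-phase inhibition.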
On to `COCCn1cc(-c2cnc3c(Nc4ccc(C(=O)N5CCN(C(=O)CCN)CC5)c(Cl)c4)nccn23)c(C(F)(F)F)n1` [Example 294, 3-amino-1-[4-[2-chloro-4-[[3-[1-(2-methoxyethyl)-3-(trifluoromethyl)pyrazol-4-yl]imidazo[1,2-a]pyrazin-8-yl]amino]benzoyl]piperazin-1-yl]propan-1-one formate], for which the IC90 (commonly the concentration at which the effect reaches the 90% level) came out at 0.457 µM.

As to `NCCCC[C@H](N)C(=O)NCCNC(=O)c1ccc(Nc2nccn3c(-c4c[nH]nc4C(F)(F)F)cnc23)cc1Cl` [Example 224, 2-chloro-N-[2-[[(2S)-2,6-diaminohexanoyl]amino]ethyl]-4-[[3-[3-(trifluoromethyl)-1H-pyrazol-4-yl]imidazo[1,2-a]pyrazin-8-yl]amino]benzamide formate], the IC90 turned out to be 1.5 µM.

For `CCc1cc(Nc2nccn3c(-c4cn(CC(F)(F)F)nc4C(F)(F)F)cnc23)ccc1C(=O)NCCOCCN` [Example 276, N-[2-(2-aminoethoxy)ethyl]-2-ethyl-4-[[3-[1-(2,2,2-trifluoroethyl)-3-(trifluoromethyl)pyrazol-4-yl]imidazo[1,2-a]pyrazin-8-yl]amino]benzamide formate], the IC90 came out at 0.178 µM.

In the case of `CCc1cc(Nc2nccn3c(-c4cn(CC(F)F)nc4C(F)(F)F)cnc23)ccc1C(=O)NCCOCCN1CCOCC1` [Example 717, 4-((3-(1-(2,2-difluoroethyl)-3-(trifluoromethyl)-1H-pyrazol-4-yl)imidazo[1,2-a]pyrazin-8-yl)amino)-2-ethyl-N-(2-(2-morpholinoethoxy)ethyl)benzamide formate], the IC90 is 0.434 µM.

For `O=C(c1ccc(Nc2nccn3c(-c4c[nH]nc4C(F)(F)F)cnc23)cc1Cl)N1CCN(C(=O)[C@H]2CCNC[C@@H]2O)CC1` [Example 453, [2-chloro-4-[[3-[3-(trifluoromethyl)-1H-pyrazol-4-yl]imidazo[1,2-a]pyrazin-8-yl]amino]phenyl]-[4-[(3R,4S)-3-hydroxypiperidine-4-carbonyl]piperazin-1-yl]methanone formate], the IC90 amounted to 0.586 µM.

With `CCc1cc(Nc2nccn3c(-c4c[nH]nc4C(F)(F)F)cnc23)ccc1C(=O)NC1CNC1` [Example 515, N-(azetidin-3-yl)-2-ethyl-4-((3-(3-(trifluoromethyl)-1H-pyrazol-4-yl)imidazo[1,2-a]pyrazin-8-yl)amino)benzamide formate], the IC90 was 0.49 µM.

On to `CCc1cc(Nc2nccn3c(-c4cn(CC(C)(C)CO)nc4C(F)(F)F)cnc23)ccc1C(=O)NCCOCCN` [Example 306, N-[2-(2-aminoethoxy)ethyl]-2-ethyl-4-[[3-[1-(3-hydroxy-2,2-dimethylpropyl)-3-(trifluoromethyl)pyrazol-4-yl]imidazo[1,2-a]pyrazin-8-yl]amino]benzamide formate], for which the IC90 stood at 0.483 µM.

Regarding `CCc1cc(Nc2nccn3c(-c4c[nH]nc4C(F)(F)F)cnc23)ccc1C(=O)NC1CC2(CNC2)C1` [Example 514, 2-ethyl-N-(2-azaspiro[3.3]heptan-6-yl)-4-((3-(3-(trifluoromethyl)-1H-pyrazol-4-yl)imidazo[1,2-a]pyrazin-8-yl)amino)benzamide formate], the IC90 was 0.803 µM.

In the case of `Cc1cc(Nc2nccn3c(-c4cn(CC#N)nc4C(F)(F)F)cnc23)ccc1C(=O)N[C@H](C)C(=O)NC1CC(N)C1` (stereo partly drawn) [Example 725, N-[(1R)-2[(3-aminocyclobutyl)amino]-1-methyl-2-oxo-ethyl]-4-[[3-[1-(cyanomethyl)-3-(trifluoromethyl)pyrazol-4-yl]imidazo[1,2-a]pyrazin-8-yl]amino]-2-methyl-benzamide formate], the IC90 was found to be 0.462 µM.

The assay is the same for the next values; noted with them: Acinetobacter baumannii, ATCC17961, 16 h, strain ATCC 17961, OD600 growth over 16 h, read-out: A. baumannii ATCC 17961 IC90.
In the case of `O=C(NC1CN(C(=O)c2ccc(Nc3nccn4c(-c5c[nH]nc5C(F)(F)F)cnc34)cc2Cl)C1)N[C@@H]1CCNC1` [Example 168, 1-[1-[2-chloro-4-[[3-[3-(trifluoromethyl)-1H-pyrazol-4-yl]imidazo[1,2-a]pyrazin-8-yl]amino]benzoyl]azetidin-3-yl]-3-[(3R)-pyrrolidin-3-yl]urea], the IC90 came to 0.369 µM.

With `C#CCn1cc(-c2cnc3c(Nc4ccc(C(=O)NCCOCCN)c(C)c4)nccn23)c(C(F)(F)F)n1` [Example 16, N-[2-(2-aminoethoxy)ethyl]-2-methyl-4-[[3-[1-prop-2-ynyl-3-(trifluoromethyl)pyrazol-4-yl]imidazo[1,2-a]pyrazin-8-yl]amino]benzamide], the IC90 came out at 0.069 µM.

In the case of `C#CC(C)n1cc(-c2cnc3c(Nc4ccc(C(=O)N5CCN(C(=O)[C@H]6C[C@H](O)CN6)CC5)c(CC)c4)nccn23)c(C(F)F)n1` (stereo in doubt) [Example 787, (4-(4-((3-(1-(but-3-yn-2-yl)-3-(difluoromethyl)-1H-pyrazol-4-yl)imidazo[1,2-a]pyrazin-8-yl)amino)-2-ethylbenzoyl)piperazin-1-yl)((2R,4S)-4-hydroxypyrrolidin-2-yl)methanone (mixture of epimers)], the IC90 stood at 1.57 µM.

Consider `CCc1cc(Nc2nccn3c(-c4c[nH]nc4C(F)(F)F)cnc23)ccc1C(=O)NCCNC(=O)N1CC[C@@H](N)C1` [Example 517, (R)-3-amino-N-(2-(2-ethyl-4-((3-(3-(trifluoromethyl)-1H-pyrazol-4-yl)imidazo[1,2-a]pyrazin-8-yl)amino)benzamido)ethyl) pyrrolidine-1-carboxamide formate], for which the IC90 amounted to 0.369 µM.

In the case of `N#CCn1cc(-c2cnc3c(Nc4ccc(C(=O)N5CCN(C(=O)CN)CC5)c(Cl)c4)nccn23)c(C(F)(F)F)n1` [Example 132, 2-[4-[8-[4-[4-(2-aminoacetyl)piperazine-1-carbonyl]-3-chloroanilino]imidazo[1,2-a]pyrazin-3-yl]-3-(trifluoromethyl)pyrazol-1-yl]acetonitrile], the IC90 is 0.136 µM.

As for `Cc1cc(Nc2nccn3c(-c4cn(CC#N)nc4C(F)(F)F)cnc23)cc(F)c1C(=O)N[C@H](C)CN` [Example 719, (R)-N-(1-aminopropan-2-yl)-4-((3-(1-(cyanomethyl)-3-(trifluoromethyl)-1H-pyrazol-4-yl)imidazo[1,2-a]pyrazin-8-yl)amino)-2-fluoro-6-methylbenzamide], the concentration for an effect of 90% (IC90) amounted to 0.435 µM.

`Cc1cc(Nc2nccn3c(-c4cn(CC#N)nc4C(F)(F)F)cnc23)cc(F)c1C(=O)N1CCN(C(=O)[C@H]2CC[C@H](O)N2)CC1` [Example 715, 2-(4-(8-((3-fluoro-4-(4-((2R,5S)-5-hydroxypyrrolidine-2-carbonyl)piperazine-1-carbonyl)-5-methylphenyl)amino)imidazo[1,2-a]pyrazin-3-yl)-3-(trifluoromethyl)-1H-pyrazol-1-yl) acetonitrile]: the IC90 amounted to 0.422 µM.

For the molecule `C#CC(C)n1cc(-c2cnc3c(Nc4ccc(C(=O)N5CCN(C(=O)C(C)N)CC5)c(CC)c4)nccn23)c(C(F)F)n1` (stereo in doubt) [Example 784, (2R)-2-amino-1-(4-(4-((3-(1-(but-3-yn-2-yl)-3-(difluoromethyl)-1H-pyrazol-4-yl)imidazo [1,2-a]pyrazin-8-yl)amino)-2-ethylbenzoyl)piperazin-1-yl)propan-1-one (mixture of epimers)], the IC90 is 1.24 µM.

With `CCc1cc(Nc2nccn3c(-c4cn(CC(O)CC)nc4C(F)(F)F)cnc23)ccc1C(=O)NCCOCCN` (stereo not drawn) [Example 268, N-[2-(2-aminoethoxy)ethyl]-2-ethyl-4-[[3-[1-(2-hydroxybutyl)-3-(trifluoromethyl)pyrazol-4-yl]imidazo[1,2-a]pyrazin-8-yl]amino]benzamide], the IC90 came out at 0.346 µM.

For `Cc1cc(Nc2nccn3c(-c4c[nH]nc4C(F)(F)F)cnc23)ccc1C(=O)NCCOCCN` [Example 360, N-[2-(2-aminoethoxy)ethyl]-2-methyl-4-[[3-[3-(trifluoromethyl)-1H-pyrazol-4-yl]imidazo[1,2-a]pyrazin-8-yl]amino]benzamide hydrochloride], the IC90 came out at 0.257 µM.

Regarding `CCc1cc(Nc2nccn3c(-c4cn(CC#N)nc4C#N)cnc23)ccc1C(=O)NCCOCCN` [Example 830, N-(2-(2-aminoethoxy)ethyl)-4-((3-(3-cyano-1-(cyanomethyl)-1H-pyrazol-4-yl)imidazo[1,2-α]pyrazin-8-yl)amino)-2-ethyl-benzamide], the IC90 was 0.58 µM.

Consider `NC12CC(NC(=O)c3ccc(Nc4nccn5c(-c6c[nH]nc6C(F)(F)F)cnc45)cc3Cl)(C1)C2` [Example 105, N-(3-amino-1-bicyclo[1.1.1]pentanyl)-2-chloro-4-[[3-[3-(trifluoromethyl)-1H-pyrazol-4-yl]imidazo[1,2-a]pyrazin-8-yl]amino]benzamide], for which the IC90 was 1.56 µM.

In the case of `N#CCn1cc(-c2cnc3c(Nc4ccc(C(=O)NCCNCC(=O)N[C@@H]5CCNC5)c(Cl)c4)nccn23)c(C(F)(F)F)n1` [Example 818, (R)-2-chloro-4-((3-(1-(cyanomethyl)-3-(trifluoromethyl)-1H-pyrazol-4-yl)imidazo[1,2-a]pyrazin-8-yl)amino)-N-(2-((2-oxo-2-(pyrrolidin-3-ylamino)ethyl)amino)ethyl) benzamide formate], the IC90 was 0.15 µM.

The assay is the same for the next values; noted with them: strain ATCC 17961, OD600 growth over 16 h, read-out: A. baumannii ATCC 17961 IC90.
With `CCc1cc(Nc2nccn3c(-c4c[nH]nc4C(F)(F)F)cnc23)ccc1C(=O)NCCNC(=O)[C@H]1C[C@@H](N)C1` [Example 804, N-(2-((1s,3s)-3-aminocyclobutane-1-carboxamido)ethyl)-2-ethyl-4-((3-(3-(trifluoromethyl)-1H-pyrazol-4-yl)imidazo[1,2-a]pyrazin-8-yl)amino)benzamide formate], the IC90 was determined as 0.511 µM.

For `COCCNC(=O)c1ccc(Nc2nccn3c(-c4cn(CC#N)nc4C(F)(F)F)cnc23)cc1Cl` [Example 239, 2-chloro-4-[[3-[1-(cyanomethyl)-3-(trifluoromethyl)pyrazol-4-yl]imidazo[1,2-a]pyrazin-8-yl]amino]-N-(2-methoxyethyl) benzamide], the IC90 was 0.211 µM.

Values taken from patent US20230203043A1, “NOVEL IMIDAZOPYRAZINE DERIVATIVES” (Hoffmann-La Roche Inc., priority 2020, published 2023).
